# Laboratory results published in PubChem BioAssay (NCI).
# “And” between values parts separate entries of the source, which are not always exact repeats. Equal values may be shown once.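 All cell lines were grown in 96-well plates and treated with compound for 48 hours. At the GI50, growth is halved. Definition used: TGI = concentration required for complete inhibition of growth.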
# Assays:
# Experiment in all cases: NCI anticancer screen, dose series, 48 h
# CCRF-CEM leukemia = system: CCRF-CEM leukemia
# HL-60(TB) leukemia = system: HL-60(TB) leukemia
# HOP-92 NSCLC = system: HOP-92 NSCLC
# HT29 colon = system: HT29 colon
# K-562 leukemia = system: K-562 leukemia
# LOX IMVI melanoma = system: LOX IMVI melanoma
# OVCAR-5 ovarian = system: OVCAR-5 ovarian
# SF-268 CNS = system: SF-268 CNS
# SK-MEL-5 melanoma = system: SK-MEL-5 melanoma
# SNB-75 CNS = system: SNB-75 CNS
SMILES,GI50 (CCRF-CEM leukemia),TGI (CCRF-CEM leukemia),GI50 (HL-60(TB) leukemia),TGI (HL-60(TB) leukemia),GI50 (HOP-92 NSCLC),TGI (HOP-92 NSCLC),GI50 (HT29 colon),TGI (HT29 colon),GI50 (K-562 leukemia),TGI (K-562 leukemia),GI50 (LOX IMVI melanoma),TGI (LOX IMVI melanoma),GI50 (OVCAR-5 ovarian),TGI (OVCAR-5 ovarian),GI50 (SF-268 CNS),TGI (SF-268 CNS),GI50 (SK-MEL-5 melanoma),TGI (SK-MEL-5 melanoma),GI50 (SNB-75 CNS),TGI (SNB-75 CNS)
COc1ccc(CN2CCc3c(Cl)nc(N)nc3C2=O)c(OC)c1,17 µM,56.6 µM,1.67 µM,5.52 µM,14.5 µM,36 µM,15.2 µM,29.1 µM,2.46 µM,37.7 µM,13.2 µM,26.7 µM,21.1 µM,46.7 µM,13.6 µM,27.3 µM,13.5 µM,26.7 µM,14.4 µM,32.7 µM
CN(C)C1(C#N)CCC2(CC1)OCCO2,–,> 100 µM,–,> 100 µM,–,> 100 µM,–,> 100 µM,–,> 100 µM,–,> 100 µM,–,> 100 µM,–,> 100 µM,–,> 100 µM,–,> 100 µM
COC1OC(OC)C2C(c3c(C)cc(C)cc3C)=NOC12 (stereo not drawn),–,> 100 µM,–,> 100 µM,–,> 100 µM,–,> 100 µM,–,> 100 µM,–,> 100 µM,–,> 100 µM,–,> 100 µM,–,> 100 µM,–,> 100 µM
O=C(Nc1ccc(Cl)cc1)NS(=O)(=O)c1ccc2c(c1)CCC2,10.5 µg/mL,> 100 µM and 57.4 µg/mL,24.1 µg/mL,> 78.2 µM and 65.8 µg/mL,8.6 µg/mL,31.5 µg/mL,19.7 µg/mL,> 100 µM and 43.4 µg/mL,11.3 µg/mL,> 77.1 µM and 150 µg/mL,–,> 79.9 µM,20 µg/mL,> 91 µM and 39.3 µg/mL,15.7 µg/mL,> 100 µM and 35.7 µg/mL,20.6 µg/mL,> 74 µM and 40 µg/mL,28.1 µg/mL,> 100 µM and 64.7 µg/mL
CCc1cc(C(N)=O)ccc1-n1nc(C(C)C)c2c(-n3cnc(-c4cnn(C)c4)c3)ccnc21,0.752 µM,> 100 µM,1.14 µM,> 100 µM,2.3 µM,14.3 µM,0.474 µM,> 100 µM,0.867 µM,> 100 µM,0.913 µM,5.56 µM,15.4 µM,> 100 µM,8.76 µM,> 100 µM,3.98 µM,> 100 µM,4.11 µM,> 100 µM
C=C1C(=O)O[C@@H]2[C@@H]3O[C@@](C)(CC/C=C(\C)CCC[C@@H]2C)[C@H](O)C[C@@H]13,3.01 µM,21.3 µM,–,8.1 µM,1.7 µM,4.58 µM,2.41 µM,6.71 µM,3.1 µM,9.58 µM,1.77 µM,4.03 µM,–,26.7 µM,3.04 µM,10 µM,1.72 µM,3.49 µM,2.58 µM,13.4 µM
COc1ccc(C2SC(N)=Nc3c2c(C)nn3C(=O)c2ccncc2)cc1 (stereo not drawn),–,> 100 µM,–,> 100 µM,–,> 100 µM,–,> 100 µM,–,> 100 µM,–,> 100 µM,–,> 100 µM,–,> 100 µM,–,> 100 µM,–,> 100 µM
Cc1ccc(CCC(=O)Nc2ncc(Cc3cc(Cl)ccc3Cl)s2)o1,0.197 µM,> 100 µM,0.193 µM,0.589 µM,2.33 µM,> 45.3 µM,0.054 µM,–,0.0401 µM,> 100 µM,0.221 µM,–,0.455 µM,14.1 µM,1.59 µM,> 54.6 µM,0.0804 µM,5.96 µM,0.206 µM,2.16 µM
O=C(CC1Sc2ccccc2NC1=O)Nc1cccc(Cl)c1 (stereo not drawn),–,> 100 µM,–,> 100 µM,–,86.1 µM,–,> 100 µM,–,> 100 µM,–,48.2 µM,–,> 100 µM,–,> 100 µM,–,> 100 µM,–,> 100 µM
COc1cc[c]([Hg][Cl])cc1,1.06 µM,5.4 µM,3.08 µM,7.67 µM,2.26 µM,4.01 µM,5.4 µM,61 µM,1.84 µM,6.73 µM,1.42 µM,2.74 µM,20.1 µM,37.6 µM,3.27 µM,13.3 µM,2.71 µM,11.1 µM,1.69 µM,4.37 µM
CCCOC(=O)C1CCC(=O)N1C(=O)C(Cl)Cl (stereo not drawn),–,> 100 µM,–,> 100 µM,–,> 100 µM,–,> 100 µM,–,> 100 µM,–,> 100 µM,–,> 100 µM,–,> 100 µM,–,> 100 µM,–,> 100 µM
CCCCNC(=S)Nn1c(-c2ccccc2)nc2ccccc2c1=O,–,> 100 µM,–,> 100 µM,–,> 100 µM,–,> 100 µM,–,> 100 µM,–,> 100 µM,–,> 100 µM,–,> 100 µM,–,> 100 µM,–,> 100 µM
COC(=O)C1=CC(=O)C(C(=O)Nc2ccc(OC)cc2)C(c2ccccc2)O1 (stereo not drawn),–,> 100 µM,–,> 100 µM,–,48.1 µM,–,> 100 µM,–,> 100 µM,–,> 72.9 µM,–,> 100 µM,–,37.3 µM,–,> 73.7 µM,–,43.1 µM
CC(=O)NNc1nc(C)c(C(/C=C/c2ccc(/C=C/C(=N\NC(=O)c3ccncc3)c3sc(NNC(C)=O)nc3C)cc2)=N/NC(=O)c2ccncc2)s1,–,> 100 µM,–,> 100 µM,–,> 100 µM,–,> 100 µM,–,> 100 µM,–,> 100 µM,–,> 100 µM,–,> 100 µM,–,> 100 µM,–,> 100 µM
CN(NC(=O)/C(=C/c1ccc(O)cc1)NC(=O)c1ccccc1)c1ccnc2cc(Cl)ccc12,–,61.5 µM,–,5.84 µM,–,32.2 µM,–,23 µM,–,30.5 µM,–,37.2 µM,–,50.5 µM,–,36 µM,–,37.5 µM,–,22.8 µM
COc1cc([C@@H]2c3cc4c(cc3[C@H](OC3OC5COC(c6ccccc6)OC5C(O)C3O)[C@H]3COC(=O)[C@H]23)OCO4)cc(OC)c1OC (stereo partly drawn),0.57 µM,–,0.342 µM,1.46 µM,2.73 µM,18.8 µM,0.356 µM,2.32 µM,0.359 µM,> 100 µM,0.427 µM,2.84 µM,2.58 µM,22.5 µM,0.428 µM,2.72 µM,0.242 µM,0.715 µM,0.403 µM,8.11 µM
COC(=O)C1=C(O)C(O)=C(C(=O)OC)CC1,–,> 100 µM,–,> 100 µM,–,> 100 µM,–,> 100 µM,–,> 100 µM,–,> 100 µM,–,> 100 µM,–,> 100 µM,–,> 100 µM,–,> 100 µM
COc1ccc(C(=O)CC2(O)C(=O)Nc3c(Cl)ccc(Cl)c32)cc1 (stereo not drawn),2.03 µM,> 26.3 µM,0.384 µM,3.51 µM,1.22 µM,18.4 µM,0.491 µM,> 57.9 µM,0.403 µM,> 100 µM,2.72 µM,> 100 µM,5.23 µM,> 100 µM,5.95 µM,> 61.1 µM,1.01 µM,18.8 µM,1.89 µM,> 29.8 µM
CC(=O)OC1COC(N2C(=O)C(=O)c3c(C)cc(Cl)nc32)C(OC(C)=O)C1OC(C)=O (stereo not drawn),–,> 100 µM,–,> 100 µM,–,> 100 µM,–,> 100 µM,–,> 100 µM,–,> 100 µM,–,> 100 µM,–,> 100 µM,–,> 100 µM,–,> 100 µM
COc1ccc(NC(=O)CC/C(CC(=O)c2ccco2)=N/Nc2ccc([N+](=O)[O-])cc2[N+](=O)[O-])cc1,–,85.1 µM,–,88.8 µM,–,> 100 µM,–,> 100 µM,–,> 100 µM,–,> 100 µM,–,> 100 µM,–,> 100 µM,–,> 100 µM,–,> 100 µM
COc1cc(-c2cc(-c3ccc(N(C)C)cc3)nc(N3CCC(O)CC3)c2C#N)cc(OC)c1OC,0.598 µM,> 100 µM,0.574 µM,4.13 µM,0.182 µM,0.788 µM,0.272 µM,1.43 µM,0.367 µM,10.5 µM,0.0455 µM,0.205 µM,0.459 µM,> 36.3 µM,1.22 µM,5.31 µM,0.162 µM,0.508 µM,0.457 µM,10.1 µM
O=C1CCCC1C(=O)Nc1ccc2ccccc2c1 (stereo not drawn),–,> 100 µM,–,> 100 µM,–,> 100 µM,–,> 100 µM,–,> 100 µM,–,> 100 µM,–,> 100 µM,–,> 100 µM,–,> 100 µM,–,> 100 µM
CC(C)Oc1cc(OCC(=O)O)cc(C(=O)N(CCC(N)=O)C(=O)Nc2ccc(C(=O)O)cc2OC(C)C)c1,> 100 µM,> 100 µM,> 100 µM,> 100 µM,> 100 µM,> 100 µM,> 100 µM,> 100 µM,> 100 µM,> 100 µM,> 100 µM,> 100 µM,> 100 µM,> 100 µM,> 100 µM,> 100 µM,> 100 µM,> 100 µM,> 100 µM,> 100 µM
COc1ccc(/C=C2/SC(=Nc3c(C)nn(-c4ccccc4)c3N)NC2=O)cc1,2.14 µM,20.8 µM,2.9 µM,10.7 µM,1.4 µM,14.4 µM,3.8 µM,16.6 µM,3.02 µM,> 100 µM,3.88 µM,15.8 µM,10.9 µM,63.2 µM,4.84 µM,35.7 µM,3.23 µM,10.5 µM,3.43 µM,26.7 µM
COc1ccc(CN(O)C2C(CO)OC(n3cc(I)c(=O)[nH]c3=O)C2O)cc1 (stereo not drawn),–,> 100 µM,–,> 100 µM,–,> 100 µM,–,> 100 µM,–,> 100 µM,–,> 100 µM,–,> 100 µM,–,> 100 µM,–,> 100 µM,–,> 100 µM
COC(=O)C1=Cc2cc3c(cc2[C@H](c2ccc4c(c2)OCO4)C1C(=O)OC)OCO3 (stereo partly drawn),–,> 100 µM,–,> 100 µM,–,> 100 µM,–,> 100 µM,–,> 100 µM,–,> 100 µM,–,> 100 µM,–,> 100 µM,–,> 100 µM,–,> 100 µM
O=C(Nc1ccc(Cl)c(Cl)c1)Nc1ccc(Cl)c([N+](=O)[O-])c1,1.12 µM,> 25 µM,0.947 µM,14.6 µM,0.66 µM,2.07 µM,1.24 µM,4.82 µM,1.06 µM,19 µM,1.03 µM,3.81 µM,2.79 µM,9.29 µM,1.76 µM,6.84 µM,2 µM,5.08 µM,4.74 µM,24.4 µM
CCOC(=O)c1cnc2ccc(Cl)cc2c1NCCCN(C)C,22.2 µM,> 100 µM,19.4 µM,50.8 µM,20.3 µM,98.4 µM,14.1 µM,52.6 µM,18.1 µM,> 100 µM,14.1 µM,34.1 µM,22.2 µM,> 100 µM,19.9 µM,94 µM,16 µM,30.4 µM,0.684 µM,77.2 µM
Cn1cc(-c2ccc3cc(-c4ccc(CC(=O)Nc5cc(C(C)(C)C)nn5C)cc4)cnc3c2)cn1,0.375 µM,> 100 µM,0.314 µM,–,0.401 µM,> 100 µM,0.377 µM,> 100 µM,0.347 µM,> 100 µM,0.284 µM,> 100 µM,0.606 µM,> 100 µM,0.294 µM,> 100 µM,0.227 µM,0.585 µM,0.0723 µM,> 100 µM
CCN(CC)CCN(C)CC(C)(C)C(=O)/C=C/c1ccccc1,–,38.4 µM,–,28.9 µM,–,18.1 µM,–,24.9 µM,–,> 100 µM,–,24 µM,–,26.9 µM,–,27.2 µM,–,27.3 µM,–,18.3 µM
